Among the data in patent US5665745A, “Heterocyclic compounds and their preparation and use” (Eli Lilly and Company, priority 1995, dated 1997) are IC50 values, retold here.

Test [1] addresses muscarinic acetylcholine receptors. Description: inhibition of specific binding of ^3 H-Oxotremorine-M (^3 H-Oxo). The settings on record: ^3 H-Oxotremorine 1.0 nM, rat cortex, 30 min. at 25° C. Also on record: species or system rat (male Wistar. The source says:
The pharmacological properties of the compounds of the invention can be illustrated by determining their capability to inhibit the specific binding of ^3 H-Oxotremorine-M (^3 H-Oxo). Birdsdall N. J. M., Hulme E. C., and Burgen A. S. V. (1980). "The Character of Muscarinic Receptors in Different Regions of the Rat Brain" Proc. Roy. Soc. London (Series B) 207,1.
^3 H-Oxo labels muscarinic receptor in the CNS (with a preference for agonist domains of the receptors). Three different sites are labeled by ^3 H-Oxo. […] Using the present experimental conditions only the high and medium affinity sites are determined.
The inhibitory effects of compounds on ^3 H-oxo binding reflects the affinity for muscarinic acetylcholine receptors.
All preparations are performed at 0°-4° C. unless otherwise indicated. Fresh cortex (0.1-1 g) from male Wistar rats (150-250 g) is homogenized for 5-10 seconds in 10 mL […] Hepes pH: 7.4, with an Ultra-Turrax homogenizer. The homogenizer is rinsed with 10 mL of buffer and the combined suspension centrifuged for 15 min. at 40,000×g. The pellet is washed three times with buffer. In each step the pellet is homogenized as before in 2×10 mL of buffer and centrifuged for 10 min. at 40,000×g.
The final pellet is homogenized in 20 mM Hepes pH: 7.4 (100 mL per g of original tissue) and used for binding assay. Aliquots of 0.5 mL is added 25 μL of test solution and 25 μL of ^3 H-Oxotremorine (1.0 nM, final concentration) mixed and incubated for 30 min. at 25° C. Non-specific binding is determined in triplicate using arecoline ([…], final concentration) as the test substance. After incubation samples are added 5 mL of ice-cold buffer and poured directly onto Whatman GF/C glass fiber filters under suction and immediately washed 2 times with 5 mL of ice-cold buffer. The amount of radioactivity on the filters are determined by conventional liquid scintillation counting. Specific binding is total binding minus non specific binding.
Test substances are dissolved in 10 mL water (if necessary heated on a steam-bath for less than 5 min.) at a concentration of 2.2 mg/mL. […] The test value will be given as IC50 (the concentration (nM) of the test substance which inhibits the specific binding of ^3 H-oxo by 50%). IC50 =(applied test substance concentration) x(Cx /Co -Cx)nM where Co is specific binding in control assays and Cx is the specific binding in the test assay. (The calculations assume normal mass-action kinetics).

Test [2] concerns the target T1, muscarinic receptors (M1 -site, pirenzepine sensitive site) (Rattus norvegicus, UniProt P08482).
T1 construct: from tissue; host or cells: cerebral cortex membranes of male Wistar rats
T1 sequence (P08482 1-460): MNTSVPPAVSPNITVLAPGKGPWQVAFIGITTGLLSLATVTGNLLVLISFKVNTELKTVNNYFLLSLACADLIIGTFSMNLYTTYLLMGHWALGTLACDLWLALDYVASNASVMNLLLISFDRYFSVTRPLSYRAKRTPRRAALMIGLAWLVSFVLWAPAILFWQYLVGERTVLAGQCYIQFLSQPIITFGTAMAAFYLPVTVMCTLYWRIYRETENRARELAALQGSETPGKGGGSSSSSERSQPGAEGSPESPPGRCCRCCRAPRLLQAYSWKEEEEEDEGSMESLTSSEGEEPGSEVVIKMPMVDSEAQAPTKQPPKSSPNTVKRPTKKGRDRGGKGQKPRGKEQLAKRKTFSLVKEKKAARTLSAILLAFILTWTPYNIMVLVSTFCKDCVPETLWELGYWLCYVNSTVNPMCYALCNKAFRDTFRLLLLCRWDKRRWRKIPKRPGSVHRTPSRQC
Description: inhibition of ^3 HPRZ (pirenzepine, [N-methyl-^3 H]) binding to rat cerebral cortex membranes. Also on record: species or system rat (male Wistar. Here is the method:
Furthermore the pharmacological properties of the compounds of the invention can also be illustrated by determining their capability to inhibit ^3 HPRZ (pirenzepine, [N-methyl-^3 H]) binding to rat cerebral cortex membranes.
Pirenzepine binds selectively to subtype of muscarinic receptors. Historically the type is named the M1 -site, whereas pirenzepine sensitive site would be more appropriate.
All preparations are performed at 0°-4° C. unless otherwise indicated. Fresh cortex ([…]) from male Wistar rats (150-200 g) is homogenized for 5-10 s in 10 mL 20 mM Hepes pH: 7.4, with an Ultra-Turrax homogenizer. The homogenizer is rinsed with 2×10 mL of buffer and the combined suspension centrifuged for 15 min. at 40,000×g. The pellet is washed three times with buffer. In each step the pellet is homogenized as before in 3×10 mL of buffer and centrifuged for 10 min. at 40,000×g.
The final pellet is homogenized in 20 mM Hepes pH: 7.4 (100 mL per g of original tissue) and used for binding assay. Aliquots of 0.5 mL is added 20 μl of test solution and 25 μL of ^3 HPRZ (1.0 nM, final conc.), mixed and incubated for 60 min. at 20° C. Non-specific binding is determined in triplicate using atropine (1 ,μg/mL, final conc.) as the test substance. After incubation samples are added 5 mL of ice-cold buffer and poured directly onto Whatman GF/C glass fiber filters under suction and immediately washed 2 times with 5 mL of ice-cold buffer. The amount of radioactivity on the filters are determined by conventional liquid scintillation counting. Specific binding is total binding minus non-specific binding.
Test substances are dissolved in 10 mL water, at a concentration of 0.22 mg/mL.
The test value will be given as IC50 (the concentration (nM) of the test substance which inhibits the specific binding of ^3 HPRZ by 50%). IC50 =(applied test substance concentration) x(Cx /Co -Cx)nM where Co is specific binding in control assays and Cx is the specific binding in the test assay. (The calculations assume normal mass-action kinetics).

Setting [3] is: ^3 HPRZ 1.0 nM, rat cortex, 60 min. at 20° C., read-out: ^3 HPRZ IC50 (head from b208 on: Pir IC-50).

As usually defined, the IC50 is the concentration that inhibits the measured activity by half.

Like-named read-outs stand apart in the source and are kept apart here.

On to `c1csc(-c2ccc(Sc3nsnc3OC3CN4CCC3CC4)s2)c1` (racemic) [Compound 57, (±)-3-(2-(5-(2-Thienyl)thienyl)thio)-4-(1-azabicyclo [2.2.2]octyl-3-oxy)-1,2,5-thiadiazole], for which the results for the IC50 in test [1] and in test [2] were 88 nM and 37 nM, respectively.

As to `FCCCOc1nsnc1O[C@@H]1CN2CCC[C@H]1C2` (relative stereo) [Compound 205, (±)-endo-3-(3-Fluoropropoxy)-4-(1-azabicyclo[3.2.1]octyl-6-oxy)-1,2,5-thiadiazole], the IC50 in test [1] came to 2.5 nM; in test [2] (setting [3]) it was 3 nM.

For the molecule `CCCCSc1nsnc1OC1CCCN2CCCC12` (mixture of isomers) [Compound 142, (±)-cis-3-Butylthio-4-(1-azabicyclo[4.3.0]nonyl-5-oxy)-1,2,5-thiadiazole], the IC50 turned out to be 38 nM in test [1] and 74 nM in test [2] (setting [3]).

Take `Cc1ncsc1CCOc1nsnc1O[C@@H]1CN2CCC[C@H]1C2` (relative stereo) [Compound 171, (±)-endo-3-(2-(4-Methyl-1,3-thiazol-5-yl)ethoxy)-4-(1-azabicyclo[3.2.1]octyl-6-oxy)-1,2,5-thiadiazole]: the IC50 in test [1] amounted to 19 nM; in test [2] (setting [3]), 27 nM.

As for `FC(F)(F)CCCSc1nsnc1OC1CN2CCC1CC2` (racemic) [Compound 154, (±)-3-(4,4,4-trifluorobutylthio)-4-(1-azabicyclo[2.2.2]octyl-3-oxy)-1,2,5-thiadiazole], the IC50 in test [1] came out at 11 nM; in test [2], 6.3 nM.

Turning to `c1ccc(OCCOc2nsnc2O[C@@H]2CN3CCC[C@H]2C3)cc1` (relative stereo) [Compound 191, (±)-endo-3-(2-Phenoxyethoxy)-4-(1-azabicyclo[3.2.1]octyl-6-oxy)-1,2,5-thiadiazole], the IC50 in test [1] worked out at 1.4 nM; in test [2] (setting [3]), 9.5 nM.

Consider `Clc1ccc(OCCOc2nsnc2OC2CN3CCC2CC3)cc1` (racemic) [Compound 118, (±)-3-(2-[4-Chlorophenoxy]ethoxy)-4-(1-azabicyclo[2.2.2]octyl-3-oxy)-1,2,5-thiadiazole], for which the IC50 in test [1] amounted to 7.2 nM; in test [2] it was 70 nM.

For `C/C=C\COc1nsnc1O[C@@H]1CN2CCC[C@H]1C2` (relative stereo) [Compound 181, (±)-endo-3-(cis-2-Butenyloxy)-4-(1-azabicyclo[3.2.1]octyl-6-oxy)-1,2,5-thiadiazole], the IC50 was 1.1 nM in test [1] and 2.2 nM in test [2] (setting [3]).

As to `C1CC1COc1nsnc1OC1CN2CCC1CC2` (racemic) [Compound 106, (±)-3-(Cyclopropylmethoxy)-4-(1-azabicyclo[2.2.2]octyl-3-oxy)-1,2,5-thiadiazole], the IC50 in test [1] came to 9.5 nM; in test [2], 95.4 nM.

In the case of `CCCSc1nsnc1OC1CN2CCC1CC2` (racemic) [Compound 13, (±)-3-Propylthio-4-(1-azabicyclo[2.2.2]octyl-3-oxy)-1,2,5-thiadiazole], the results for the IC50 in test [1] and in test [2] were 1.4 nM and 3.7 nM, respectively.

With `C=CCCCOc1nsnc1OC1CN2CCC1CC2` (racemic) [Compound 122, (±)-3-(4-pentenyloxy)-4-(1-azabicyclo[2.2.2]octyl-3-oxy)-1,2,5-thiadiazole], the IC50 was 11 nM in test [1] and 45 nM in test [2].

Consider `N#Cc1ccc(CSc2nsnc2OC2CN3CCC2CC3)cc1` (racemic) [Compound 41, (±)-3-(4-Cyanobenzylthio)-4-(1-azabicyclo[2.2.2]octyl-3-oxy)-1,2,5-thiadiazole], for which the IC50 in test [1] came out at 25 nM; in test [2], 19 nM.

As for `CCCS(=O)(=O)c1nsnc1OC1CN2CCC1CC2` (racemic) [Compound 103, (±)-3-propylsulfonyl-4-(1-azabicyclo[2.2.2]octyl-3-oxy)-1,2,5-thiadiazole], the IC50 in test [1] was 107 nM; in test [2] (setting [3]), 115 nM.

For the molecule `CCCCSc1nsnc1OC1CNC1` [Compound 51, 3-Butylthio-4-(3-azetidinyloxy)-1,2,5-thiadiazole], the IC50 came out at 25 nM in test [1] and 112 nM in test [2] (setting [3]).

For the molecule `C/C=C/COc1nsnc1OC1CN2CCC1CC2` (mixture of isomers) [Compound 109, (±)-3-(trans-2-butenyloxy)-4-(1-azabicyclo[2.2.2]octyl-3-oxy)-1,2,5-thiadiazole], the results for the IC50 in test [1] and in test [2] were 12.3 nM and 58.3 nM, respectively.

For the molecule `FC(F)(F)C(F)(F)CSc1nsnc1OC1CN2CCC1CC2` (racemic) [Compound 20, (±)-3-(2,2,3,3,3-Pentafluoropropylthio)-4-(1-azabicyclo-[2.2.2]octyl-3-oxy)-1,2,5-thiadiazole], the IC50 in test [1] was found to be 2.6 nM; in test [2], 4 nM.

In the case of `FC(F)(F)C(F)(F)COc1nsnc1O[C@@H]1CN2CCC[C@H]1C2` (relative stereo) [Compound 190, (±)-endo-3-(3,3,3,2,2,Pentafluoropropoxy)-4-(1-azabicyclo[3.2.1]octyl-6-oxy)-1,2,5-thiadiazole], the IC50 is 3.9 nM in test [1] and 2.5 nM in test [2] (setting [3]).

Consider `C1C[C@H]2CN(C1)C[C@H]2Oc1nsnc1OCCC1CC1` (relative stereo) [Compound 185], for which the IC50 in test [1] was 0.76 nM; in test [2] (setting [3]), 2 nM.

On to `CCCCc1ccc(COc2nsnc2O[C@@H]2CN3CCC[C@H]2C3)cc1` (relative stereo) [Compound 192, (±)-endo-3-(4-n-Butylbenzyloxy)-4-(1-azabicyclo[3.2.1]octyl-6-oxy)-1,2,5-thiadiazole], for which the IC50 in test [1] turned out to be 13 nM; in test [2] (setting [3]), 21 nM.

In the case of `c1ccc(SCCOc2nsnc2OC2CN3CCC2CC3)cc1` (racemic) [Compound 126, (±)-3-(2-[Phenylthio]ethoxy)-4-(1-azabicyclo[2.2.2]octyl-3-oxy)-1,2,5-thiadiazole], the IC50 in test [1] came out at 19 nM; in test [2], 72 nM.

Take `c1ccc(OCCSc2nsnc2O[C@@H]2CN3CCC[C@H]2C3)cc1` (relative stereo) [Compound 156, (±)-endo-3-(2-Phenoxyethylthio)-4-(1-azabicyclo[3.2.1]octyl-6-oxy)-1,2,5-thiadiazole]: the IC50 worked out at 1 nM in test [1] and 0.6 nM in test [2] (setting [3]).
